From US10266558B2, “Macroheterocyclic nucleoside derivatives and their analogues, production and use thereof” (ASAVI, LLC, priority 2016, dated 2019)

How the values were obtained:
[1] = test system: xenografts models of human pancreatic cancer; settings: in vivo; cited from earlier work
HCV NS5B RNA-polymerase = target: T1, HCV NS5B RNA-polymerase (Hepatitis C virus genotype 1a, UniProt P27958); settings: versus PSI-6206, Gemcitabine and 2′-C-Methylcytidine; cited from earlier work
T1 construct: HCV NS5B RNA-polymerase

HCV replicon = settings: cited from earlier work
HBV wild-type = settings: cited from earlier work
[2] = test system: lamivudine-entecavir resistant clone (L180M+M204V+S202G); settings: resistant mutant (L180M+M204V+S202G); cited from earlier work
[3] = in the clinic; cited from earlier work
[4] = Metabolic stability in human liver S9 fraction; format: in vitro ADME; settings: pH 7.4
Method: The human liver S9 fraction metabolic stability in human liver microsomal fraction of Macroheterocyclic nucleoside derivative represented by formula 1 and 2 and Sovaldi. Stock solutions of test compounds and PSI-352707 (10 mM) were prepared in DMSO and stored at −20° C. 10-× standard solutions of PSI-352707 (10, 8, 5, 2 and 1 μM) were prepared by dilution stock solution with water-acetonitrile mixture (1/1, v/v). The reaction mixture was prepared in a total volume of 350.5 μL containing 0.1 M potassium phosphate buffer (pH 7.4), 1 mM NADPH, 7 mM G6P, 1.5 U/mL G6PDH, 3.3 mM MgCl2, 5 mM UDPGA, 122 μLdeionised water and 1 μM test compound. The reaction mixture was pre-incubated at 400 rpm, 37° C. The reaction was initiated by adding 1 mg/mL human liver S9 fraction to the reaction mixture and incubated at 400 rpm, 37° C. […]
ABSciex QTrap 5500 Source (TurboIonSpray) was operated in negative ionization mode (Source temperature 650° C., Source gas 1 and Source gas 2-65 and 40 psi respectively). PSI-352707 and IS (tolbutamide) were detected in MRM mode by transitions with m/z 410 to 150 for H027-4261 (collision energy […]) and 269/170 for tolbutamide (collision energy […]). […] Data analysis and quantitation was performed in Analyst 1.5.2 Software (AB Sciex).

physchem = settings: simulated gi fluid

T1 sequence (P27958 2421-3011): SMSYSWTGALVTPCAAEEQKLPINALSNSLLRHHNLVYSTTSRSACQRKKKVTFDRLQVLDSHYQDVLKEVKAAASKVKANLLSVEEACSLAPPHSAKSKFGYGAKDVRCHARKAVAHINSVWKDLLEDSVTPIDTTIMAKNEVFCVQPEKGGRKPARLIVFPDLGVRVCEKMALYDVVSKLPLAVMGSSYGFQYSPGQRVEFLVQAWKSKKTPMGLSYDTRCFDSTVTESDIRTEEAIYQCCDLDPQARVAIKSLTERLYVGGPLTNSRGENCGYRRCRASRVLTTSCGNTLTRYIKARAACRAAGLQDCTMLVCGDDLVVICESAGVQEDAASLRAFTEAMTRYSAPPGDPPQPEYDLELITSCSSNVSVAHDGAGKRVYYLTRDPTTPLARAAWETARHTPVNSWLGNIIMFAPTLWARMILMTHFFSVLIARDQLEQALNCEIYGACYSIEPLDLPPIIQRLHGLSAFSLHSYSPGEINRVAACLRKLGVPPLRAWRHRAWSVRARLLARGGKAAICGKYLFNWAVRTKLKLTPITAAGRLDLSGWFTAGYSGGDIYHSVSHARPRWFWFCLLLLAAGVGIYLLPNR

## C[C@H](NP(=O)(OC[C@H]1O[C@@H](n2ccc(N)nc2=O)C(F)(F)[C@@H]1O)Oc1ccccc1)C(=O)OCc1ccccc1 (some centres unmarked) [NUC-1031, Gemcitabin-5′-phosphoramidate]
[1]
  tumor volume: significantly reduced tumor volume

## Nc1ccn([C@@H]2O[C@H](COP(=O)(N[C@H]3CCOC3=O)Oc3ccccc3)[C@@H](O)C2(F)F)c(=O)n1 (some centres unmarked) [AVI-4203]
HCV NS5B RNA-polymerase
  inhibitory activity compared with the corresponding nucleoside: by orders of magnitude higher

## CC(C)(CO)C(=O)SCCOP(=O)(COC[C@H]1OC(n2cnc3c(=O)[nH]c(N)nc32)[C@](C)(O)[C@@H]1O)NCc1ccccc1 (some centres unmarked) [IDX-184]
HCV replicon
  EC50: 0.4 µM

## 2′-Fluoro-6′-methylene-carbocyclic adenosine phosphoramidate [5′-phosphoramidate of FMCA]
HBV wild-type; HBV replication, wild-type
  EC50: 0.62 µM
HBV wild-type; against both the wild-type and resistant mutant
  more potent than FMCA: 10 fold
[2]
  EC50: 0.054 µM

## CC(C)OC(=O)[C@H](C)NP(=O)(OC[C@H]1O[C@@H](n2ccc(N)nc2=O)C(F)(F)[C@@H]1O)Oc1ccccc1 (some centres unmarked) [AVI-4201]
HCV NS5B RNA-polymerase
  inhibitory activity compared with the corresponding nucleoside: by orders of magnitude higher

## COc1nc(N)nc2c1ncn2[C@@H]1O[C@H](COP(=O)(N[C@@H](C)C(=O)OCC(C)(C)C)Oc2cccc3ccccc23)[C@@H](O)[C@@]1(C)O (some centres unmarked) [INX-08189]
HCV replicon
  EC50: 0.01 µM
[3]
  cardiovascular toxicity: severe cardiovascular toxicity

## CC(C)OC(=O)[C@H](C)N[P@](=O)(OC[C@H]1O[C@@H](n2ccc(=O)[nH]c2=O)[C@](C)(F)[C@@H]1O)Oc1ccccc1 [Sovaldi®, sofosbuvir]
[4]
  half-life at 1 μM: > 1.8 h
HCV NS5B RNA-polymerase
  inhibitory activity compared with the corresponding nucleoside: by orders of magnitude higher
physchem
  half-life: 15 h

## CC(C)OC(=O)[C@H](C)NP(=O)(OC[C@H]1O[C@@H](n2ccc(NO)nc2=O)[C@](C)(O)[C@@H]1O)Oc1ccccc1 (some centres unmarked) [CC-1845]
HCV NS5B RNA-polymerase
  inhibitory activity compared with the corresponding nucleoside: by orders of magnitude higher

## C[C@@H]1N[P@@](=O)(Oc2ccccc2)OC[C@H]2O[C@@H](n3ccc(=O)[nH]c3=O)[C@](C)(F)[C@@H]2OC(=O)CCCOC1=O [1(13)]
[4]
  half-life at 1 μM: > 12.4 h
physchem
  half-life: > 24 h

## COc1nc(N)nc2c1ncn2[C@@H]1O[C@H](COP(=O)(N[C@@H](C)C(=O)OC(C)C)Oc2ccccc2)[C@@H](O)[C@@]1(C)F (some centres unmarked) [PSI-353661]
HCV replicon; replicon assay
  EC90: 0.008 µM
  increase in potency compared to the guanosine analogue β-D-2′-deoxy-2′-R-fluoro-2′-β-C-methylguanosine: 1000 fold
